The record followed here is US4845215A, “Purine derivative” (Nippon Kayaku Kabushiki Kaisha, priority 1987, dated 1989).

Molecules are shown by their SMILES.

Data set [1] can be described thus: Solubilities into solvents. Format: physicochemical. The text has this:
(8) Solubilities into solvents

Data set [2] has as its system Herpes Simplex virus type-II. As to the kind of experiment: Antiviral activity by CPE (cytopathic effect) of Herpes Simplex virus type-II on Vevo cell. Particulars: read-out: Inhibition rate (%). Format: cell-based. As to the method: (a) Its antiviral activity was measured by observing CPE (cytopathic effect) of Herpes Simplex virus type-II on the Vevo cell originated from the kidney of Cercopithecus aetiops.

Another data set concerns MT-4 cell. Description: Cytopathic effect on MT-4 cell without virus (microscopy). Format: cell-based. Particulars: summary in words. On the procedure: About 100,000 cells/ml of MT-4 cell was introduced into a tray having 24 holes. Further, 100 microliters of a solution containing a predetermined quantity of the compound of the present invention was added, and then it was cultured in a 5% (v/v) carbon dioxide gas incubator at 37° C. for 5 hours. Subsequently, 10^3 to 10^4 infection units of HIV was added and cultured for 4 days. Then, a part of the culture fluid was applied to a slide glass and immobilized with acetone, and development of virus antigen was examined by the fluorescent antibody technique. Cytopathic effect of the compound of the invention on MT-4 cell was examined microscopically without adding virus.

The subject of data set [3] is Human Immunodeficiency Virus (HIV). As to the kind of experiment: Anti-HIV activity: development of virus antigen in MT-4 cell (fluorescent antibody technique). Format: cell-based. The conditions noted are these: for Development of virus antigen (%): 4 days, DMSO only 80 to 90%. On the procedure: (b) Anti-"Human Immunodeficiency Virus (HIV)" activity.
About 100,000 cells/ml of MT-4 cell was introduced into a tray having 24 holes. Further, 100 microliters of a solution containing a predetermined quantity of the compound of the present invention was added, and then it was cultured in a 5% (v/v) carbon dioxide gas incubator at 37° C. for 5 hours. Subsequently, 10^3 to 10^4 infection units of HIV was added and cultured for 4 days. Then, a part of the culture fluid was applied to a slide glass and immobilized with acetone, and development of virus antigen was examined by the fluorescent antibody technique.
A serum of an AIDS patient was used as the primary antibody of the fluorescent antibody technique, and FITC-labelled anti-human IgG was used as its secondary antibody.
The compound of the present invention was used in the form of a solution
in DMSO. In DMSO itself only, development of virus antigen was 80 to 90%.

The subject of the next data set is mouse. Description: Acute toxicity (LD50) on mouse. Format: in vivo. Particulars: iv. On the procedure: (§1) (3) The acute toxicity (LD50) of the compound of formula (1) on mouse was 200 mg/kg (iv) or above which is weaker than the toxicities of various known nucleic acid type antibiotics.
Data set [4] in a line: Acute toxicity (LD50) on mouse. Format: in vivo. Particulars: in vivo, iv. On the procedure:
as §1

Data set [5] deals with T Lymphocyte (spleen cell of BALB/C mouse). Description: Inhibition of Blastogenesis Reaction of T Lymphocyte by Con A (3H-thymidine take-up). Format: cell-based. Particulars: Con A 5 micrograms/liter, 37° C., 72 hours. As to the method: Inhibition of Blastogenesis Reaction of T Lymphocyte by Con A.
Spleen cell of BALB/C mouse was dividingly poured into a microplate so that the number of cells came to 2×10^5 /0.2 ml/well. To each of all the wells other than control group was added the compound of the present invention having varied concentration. Further, 5 […] of Con A was added to all the wells. Then, the cell suspensions were cultured at 37° C. for 72 hours in 5% carbon dioxide gas incubator. The blastogenesis reaction of lymphocyte was examined by adding 1μCi/well of ^3 H-thymidine 6 hours before the completion of the culture and measuring its take-up into cultured cells by means of liquid scintillation counter. If the take-up count at the time when only Con A was added was expressed by Adpm and the take-up count at the time when Con A and drug were added was expressed by Bdpm, (1 - Bdpm/Adpm)×100 could be regarded as the inhibitory rate of each drug on blastogenesis.

Take `O=c1[nH]cnc2c1ncn2[C@@H]1O[C@H](CO)[C@H]1CO` [compound of formula (1), 9-[(2'R,3'R,4'S)-3',4'-bis-(hydroxymethyl)-2'-oxetanyl]-hypoxanthine]: the Solubility result in data set [1] (acetone) is listed as “insoluble or only slightly soluble”; in data set [1] (benzene) it was “insoluble or only slightly soluble”; in data set [1] (dimethyl sulfoxide), “soluble”; in data set [1] (ether) it was “insoluble or only slightly soluble”; in data set [1] (ethyl acetate), “insoluble or only slightly soluble”; in data set [1] (methanol), “soluble”. For the same compound, the figures for the Solubility entry in data set [1] (propanol) and in data set [1] (water) were “insoluble or only slightly soluble” and “soluble”, respectively. For the same compound, the inhibition at 31.3 µg/disc in data set [2] (31.3 mcg/well) was 8%. Moreover, the inhibition at 62.5 µg/disc in data set [2] (62.5 mcg/well) came to 33%. The inhibition at 125 µg/disc in data set [2] (125 mcg/well) stood at 75%. The “cytopathic effect (summary)” value in the data set on MT-4 cell is recorded as “small”. In addition, the figures for the “Development of virus antigen (%)” value in data set [3] (1 μg/ml), in data set [3] (10 μg/ml) and in data set [3] (100 μg/ml) were 40%, 10% and 2%, respectively. The “growth-inhibitory action of HIV” value in data set [3] (summary in words) is on record as “marked”. Further, the “acute toxicity compared with various known nucleic acid type antibiotics” value with mouse is “weaker”. In data set [4], this compound returned an LD50 of at least 200 mg/kg. In data set [5], this compound displayed an IC50 of 14.5 µg/mL.
